Laboratory results as given in ChEMBL document CHEMBL3879893, “Nuclear transport modulators and uses thereof” (2011).
Activity calls are given as the source filed them. The calls are words filed in the database; no cut-off is given here.

biological target: T1, Exportin-1 (Homo sapiens, UniProt O14980); experiment: Inhibition of Crm1 in human U2OS cells expressing GFP-fused HIV1 Rev assessed as decrease in nuclear export of GFP-fused HIV1 Rev after 1 hr by Hoechst 33258 staining-based assay; type: cell-based; settings: not given
T1 sequence (O14980 whole entry, the tested form may be a part): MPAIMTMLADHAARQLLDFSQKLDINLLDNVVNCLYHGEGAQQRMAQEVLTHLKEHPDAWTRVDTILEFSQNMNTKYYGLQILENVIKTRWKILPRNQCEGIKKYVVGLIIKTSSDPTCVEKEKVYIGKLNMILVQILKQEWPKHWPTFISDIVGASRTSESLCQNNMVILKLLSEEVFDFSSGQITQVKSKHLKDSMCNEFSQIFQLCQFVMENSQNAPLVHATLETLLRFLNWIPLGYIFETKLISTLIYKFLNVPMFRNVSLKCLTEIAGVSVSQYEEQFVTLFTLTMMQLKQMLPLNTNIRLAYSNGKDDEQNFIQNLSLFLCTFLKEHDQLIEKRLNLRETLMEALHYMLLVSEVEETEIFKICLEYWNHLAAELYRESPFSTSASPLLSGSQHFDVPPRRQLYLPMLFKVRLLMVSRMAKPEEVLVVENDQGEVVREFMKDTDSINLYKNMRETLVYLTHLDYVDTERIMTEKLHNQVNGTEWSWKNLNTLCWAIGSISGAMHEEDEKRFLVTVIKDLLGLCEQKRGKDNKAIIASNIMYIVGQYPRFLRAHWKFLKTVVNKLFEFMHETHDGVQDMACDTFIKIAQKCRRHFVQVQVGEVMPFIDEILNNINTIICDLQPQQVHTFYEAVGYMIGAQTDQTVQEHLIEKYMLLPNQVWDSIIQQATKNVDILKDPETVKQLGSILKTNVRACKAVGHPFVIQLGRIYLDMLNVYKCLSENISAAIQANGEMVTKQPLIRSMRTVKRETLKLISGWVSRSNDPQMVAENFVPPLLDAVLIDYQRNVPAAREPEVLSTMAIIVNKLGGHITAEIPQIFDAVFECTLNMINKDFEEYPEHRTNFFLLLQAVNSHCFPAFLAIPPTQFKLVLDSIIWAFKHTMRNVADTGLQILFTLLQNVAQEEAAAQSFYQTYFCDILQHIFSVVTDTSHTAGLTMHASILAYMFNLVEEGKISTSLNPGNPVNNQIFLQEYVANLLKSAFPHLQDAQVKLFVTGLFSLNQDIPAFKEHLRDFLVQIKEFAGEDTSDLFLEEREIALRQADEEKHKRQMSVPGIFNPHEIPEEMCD

SMILES | IC50
CC(C)OC(=O)/C=C\n1cnc(-c2cc(OC(C)C)nc(C(F)(F)F)c2)n1 | ≤ 1 µM
O=C(/C=C\n1cnc(-c2cccc(Cl)c2)n1)OC1CCOCC1 | ≤ 1 µM
CC(C)OC(=O)/C=C\c1nnc(-c2cccc(F)c2)[nH]1 | 1 to 10 µM
CC(C)OC(=O)/C=C\n1cnc(-c2cc(OCCN3CCCC3)cc(C(F)(F)F)c2)n1 | ≤ 1 µM
CC(C)OC(=O)/C=C\c1n[nH]c(-c2cccc(Cl)c2)n1 | ≤ 1 µM
CC(C)OC(=O)/C=C\n1cnc(-c2cc(NC3CCC3)nc(C(F)(F)F)c2)n1 | ≤ 1 µM
CC(C)(C)OC(=O)/C=C\n1cnc(-c2cccc(Cl)c2)n1 | 1 to 10 µM
CC(C)OC(=O)/C=C\n1cnc(-c2csc(Br)n2)n1 | 1 to 10 µM
CCOC(=O)/C=C/n1cnc(-c2cccc(Cl)c2)n1 | ≥ 10 µM
O=C(/C=C\n1cnc(-c2cccc(Cl)c2)n1)OC1CCC1 | ≤ 1 µM
CC(C)OC(=O)/C=C\n1cnc(-c2cc(OC(C)C)cc(C(F)(F)F)c2)n1 | ≤ 1 µM
COc1cc(-c2ncn(/C=C\C(=O)OC3CNC3)n2)cc(C(F)(F)F)c1 | ≤ 1 µM
O=C(/C=C\n1cnc(-c2cccc(Cl)c2)n1)OC1CCOC1 (stereo unspecified) | ≤ 1 µM
CC(C)(C)OC(=O)/C=C/n1cnc(-c2cccc(Cl)c2)n1 | ≥ 10 µM
CC(C)OC(=O)/C=C\c1n[nH]c(-c2cc(Cl)cc(Cl)c2)n1 | 1 to 10 µM
N#C/C=C\n1cnc(-c2cccc(Cl)c2)n1 | ≤ 1 µM
CC(C)OC(=O)/C=C\n1cnc(-c2cc(OCCN(C)C)cc(C(F)(F)F)c2)n1 | ≤ 1 µM
N#C/C=C/n1cnc(-c2cccc(Cl)c2)n1 | 1 to 10 µM
CC(C)OC(=O)/C=C\n1cnc(-c2csc(Cl)c2)n1 | ≤ 1 µM
CC(C)Oc1cc(-c2ncn(/C=C\C(=O)OCc3ccccn3)n2)cc(C(F)(F)F)c1 | ≤ 1 µM
CC(C)Nc1cc(-c2ncn(/C=C\C(=O)OC(C)C)n2)cc(C(F)(F)F)n1 | ≤ 1 µM
O=C(/C=C\n1cnc(-c2cccc(Cl)c2)n1)OC1COC1 | ≤ 1 µM
O=C(/C=C\n1cnc(-c2cccc(Cl)c2)n1)N1CCC1 | ≤ 1 µM
O=C(/C=C\c1nnc(-c2cccc(Cl)c2)[nH]1)Nc1ccccc1 | ≥ 10 µM
CCOC(=O)/C=C\n1cnc(-c2cc(Cl)cc(Cl)c2)n1 | ≤ 1 µM
CC(C)Oc1cc(-c2ncn(/C=C\C#N)n2)cc(C(F)(F)F)c1 | ≤ 1 µM

SMILES | IC50
CCOC(=O)/C=C\n1cnc(-c2cccc(Cl)c2)n1 | ≤ 1 µM
O=C(/C=C\n1cnc(-c2cc(Cl)nc(Cl)c2)n1)OC1CNC1 | ≤ 1 µM
CC(C)OC(=O)/C=C\n1cnc(-c2cc(O/C=C/C(=O)OC(C)C)cc(C(F)(F)F)c2)n1 | 1 to 10 µM
O=C(/C=C\n1cnc(-c2cccc(Cl)c2)n1)OC1COC(=O)C1 (stereo unspecified) | 1 to 10 µM
O=C(/C=C\n1cnc(-c2cccc(Cl)c2)n1)OC1CCCC1 | ≤ 1 µM
O=C(/C=C\n1cnc(-c2cccc(Cl)c2)n1)OC1CNC1 | ≤ 1 µM
O=C(/C=C\n1cnc(-c2cccc(Cl)c2)n1)NC1CCCC1 | ≥ 10 µM
O=C(/C=C/n1cnc(-c2cccc(Cl)c2)n1)OC1CNC1 | 1 to 10 µM
CS(=O)(=O)/C=C\n1cnc(-c2cccc(Cl)c2)n1 | ≤ 1 µM
CC(C)Oc1cc(-c2ncn(/C=C\C(=O)OCc3ccccn3)n2)cc(C(F)(F)F)n1 | ≤ 1 µM
O=C(/C=C\n1cnc(-c2cccc(Cl)c2)n1)OC1CCCCC1 | ≤ 1 µM
O=C(/C=C\n1cnc(-c2cccc(Cl)c2)n1)OCc1cnc[nH]1 | 1 to 10 µM
COc1cc(-c2ncn(/C=C\C(=O)OC(C)C)n2)cc(C(F)(F)F)c1 | ≤ 1 µM
COC(=O)/C=C\n1cnc(-c2cc(Cl)cc(OC)c2)n1 | ≤ 1 µM
CC(C)(C)OC(=O)Nc1ccc(NC(=O)/C=C/n2cnc(-c3cccc(Cl)c3)n2)cc1 | ≥ 10 µM
O=C(/C=C/n1cnc(-c2cccc(Cl)c2)n1)Nc1cccc(Cl)c1 | ≥ 10 µM
FC(F)(F)/C=C\n1cnc(-c2cccc(Cl)c2)n1 | 1 to 10 µM
C[S+]([O-])/C=C\n1cnc(-c2cccc(Cl)c2)n1 (stereo unspecified) | 1 to 10 µM
CC(C)OC(=O)/C=C/n1cnc(-c2cc(OCCN(C)C)cc(C(F)(F)F)c2)n1 | 1 to 10 µM
CCOC(=O)/C=C\n1cnc(-c2cc(Cl)cc(OC)c2)n1 | ≤ 1 µM
O=C(/C=C\n1cnc(-c2cccc(Cl)c2)n1)OCC1CCCN1 (stereo unspecified) | 1 to 10 µM
CCOC(=O)/C=C\n1cnc(-c2cc(F)cc(F)c2)n1 | 1 to 10 µM
CN(C(=O)/C=C\c1nnc(-c2cccc(Cl)c2)[nH]1)c1ccccc1 | ≥ 10 µM
O=C(/C=C\n1cnc(-c2cccc(Cl)c2)n1)OCc1ccccn1 | ≤ 1 µM
CC(C)OC(=O)/C=C/n1cnc(-c2cc(OCCN3CCCC3)cc(C(F)(F)F)c2)n1 | ≥ 10 µM

Results, then the compound that gave them:

IC50 | SMILES
≤ 1 µM | COc1ccc(Cl)cc1-c1ncn(/C=C\C(=O)OC(C)C)n1
1 to 10 µM | CC(C)OC(=O)/C=C\n1cnc(-c2csc(Cl)n2)n1
1 to 10 µM | CC(C)OC(=O)/C=C\n1cnc(-c2ccc(Oc3ccc(Cl)cc3)cc2)n1
1 to 10 µM | CC(C)OC(=O)/C=C/Cn1cnc(-c2cccc(Cl)c2)n1
≤ 1 µM | CC(C)OC(=O)/C=C\n1cnc(-c2cc(Cl)nc(Cl)c2)n1
≤ 1 µM | COc1cc(-c2ncn(/C=C\C(=O)OC(C)C)n2)cc(Cl)n1
1 to 10 µM | CC(C)OC(=O)/C=C\n1cnc(-c2cc(Cl)cc(Oc3ccc(Cl)cc3)c2)n1
≤ 1 µM | CC(C)OC(=O)/C=C\n1cnc(-c2cncc(Cl)c2)n1
≤ 1 µM | COc1cc(OC)cc(-c2ncn(/C=C\C(=O)OC(C)C)n2)c1
≤ 1 µM | COCCOc1cc(Cl)cc(-c2ncn(/C=C\C(=O)OC(C)C)n2)c1
≥ 10 µM | CC(C)OC(=O)/C=C\n1cnc(-c2ccc(-c3ccccc3)c(F)c2)n1
≤ 1 µM | Cc1cccc(-c2ncn(/C=C\C(=O)OC(C)C)n2)c1
≤ 1 µM | CC(C)OC(=O)/C=C\n1cnc(-c2cccc(C(F)(F)F)c2)n1
≥ 10 µM | CC(C)OC(=O)/C=C/n1cnc(-c2cccc(Cl)c2)n1
≤ 1 µM | CC(C)OC(=O)/C=C\n1cnc(-c2cc(Cl)ccc2N)n1
1 to 10 µM | CC(C)OC(=O)/C=C\Cn1cnc(-c2cccc(Cl)c2)n1
≤ 1 µM | CC(C)Nc1cc(-c2ncn(/C=C\C(=O)OC(C)C)n2)cc(Cl)n1
≤ 1 µM | CC(C)OC(=O)/C=C\n1cnc(-c2cc(Cl)nc(OC(C)C)c2)n1
≤ 1 µM | CC(C)OC(=O)/C=C\n1cnc(-c2cc(Cl)cc(OC(F)(F)F)c2)n1
≤ 1 µM | CC(C)OC(=O)/C=C\n1cnc(-c2ccc(Cl)c(Cl)c2)n1
≤ 1 µM | CC(C)OC(=O)/C=C\n1cnc(-c2cc(Cl)cc(OC(C)C)c2)n1
≤ 1 µM | CNc1cc(Cl)cc(-c2ncn(/C=C\C(=O)OC(C)C)n2)c1
≤ 1 µM | COc1cc(Cl)cc(-c2ncn(/C=C\C(=O)OC(C)C)n2)c1
≤ 1 µM | CC(C)OC(=O)/C=C\n1cnc(-c2cc(C#N)cc(OC(C)C)c2)n1
1 to 10 µM | COc1ccc(-c2ncn(/C=C\C(=O)OC(C)C)n2)cc1Cl
≥ 10 µM | Nc1ccc(NC(=O)/C=C/n2cnc(-c3cccc(Cl)c3)n2)cc1
≤ 1 µM | CC(C)OC(=O)/C=C\n1cnc(-c2cccc(Cl)c2)n1
≥ 10 µM | COc1ccc(NC(=O)/C=C/n2cnc(-c3cccc(Cl)c3)n2)cc1

test system: not listed separately; experiment: Antitumor activity against 350 mm'3 human HCT116 cells xenografted in mouse assessed as tumor growth inhibition at 30 mg/kg, iv qd administered for 2 days measured after day 24 relative to control; type: functional; settings: HCT-116, iv, read-out: TGI

SMILES | inhibition in vivo at 30 mg/kg
CCc1c2c(nc3ccc(OC(=O)N4CCC(N5CCCCC5)CC4)cc13)-c1cc3c(c(=O)n1C2)COC(=O)[C@]3(O)CC [IRINOTECAN] | 78%

biological target: T1, Exportin-1; experiment: Inhibition of Crm1 in human H929 cells assessed as decrease in nuclear export of topoisomerase-2 by measuring caspase-3 levels at 0.1 to 10 uM preincubated for 16 hrs followed by addition of topoisomerase-2 inhibitor doxorubicin measured after 4 hrs by anti-caspase-3 assay; type: cell-based; settings: not given

inhibition | SMILES
Active | CC(C)OC(=O)/C=C\n1cnc(-c2cccc(Cl)c2)n1
